What was measured:
[1] = test system: PSN1 cells; assay: Inhibition of KRas-mediated phosphorylation of ERK (Cisbio HTRF pERK), PSN1 cells; assay type: cell-based; conditions: Homo sapiens, PSN1, 3 h, 3 hour compound incubation, Cisbio pERK HTRF
Outline: (§1)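 Cells were seeded on day 1 at 6,000 per well in RPMI containing 10% FBS before compound treatment and phospho-ERK detection.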

[2] = molecular target: KRas G12C (Homo sapiens, UniProt P01116, G12C); assay type: binding; conditions: single point, 10 nM compound, read-out: Binding to KRas (% inhibition at 10 nM) G12C
Chain of KRas G12C (P01116 1-169 isoform P01116-2 G12C): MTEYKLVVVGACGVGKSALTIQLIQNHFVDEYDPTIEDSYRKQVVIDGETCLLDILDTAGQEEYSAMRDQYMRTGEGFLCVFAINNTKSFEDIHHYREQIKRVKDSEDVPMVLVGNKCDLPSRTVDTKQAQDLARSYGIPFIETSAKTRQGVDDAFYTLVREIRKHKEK

[3] = test system: H460 cells; assay: Inhibition of KRas-mediated phosphorylation of ERK (Cisbio HTRF pERK), H460 cells; assay type: cell-based; conditions: Homo sapiens, NCI-H460, 3 h, 3 hr compound incubation, Cisbio pERK HTRF
[4] = test system: MKN1 cells; assay: Inhibition of KRas-mediated phosphorylation of ERK (Cisbio HTRF pERK), MKN1 cells; assay type: cell-based; conditions: Homo sapiens, MKN-1, 3 hour compound incubation, Cisbio pERK HTRF
Outline: as §1

[5] = molecular target: KRas WT (Homo sapiens, UniProt P01116); assay: KRas binding assay (TR-FRET displacement), KRas WT; conditions: single point, 10 nM compound
Chain of KRas WT (P01116 1-169 isoform P01116-2): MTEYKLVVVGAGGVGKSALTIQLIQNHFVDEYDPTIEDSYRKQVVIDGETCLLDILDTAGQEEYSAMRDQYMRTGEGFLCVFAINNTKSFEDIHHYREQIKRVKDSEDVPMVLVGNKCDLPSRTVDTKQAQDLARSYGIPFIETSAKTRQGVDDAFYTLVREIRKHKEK

[6] = molecular target: KRas G13D (Homo sapiens, UniProt P01116, G13D); assay type: binding; conditions: single point, 10 nM compound, read-out: Binding to KRas (% inhibition at 10 nM) G13D
Chain of KRas G13D (P01116 1-169 isoform P01116-2 G13D): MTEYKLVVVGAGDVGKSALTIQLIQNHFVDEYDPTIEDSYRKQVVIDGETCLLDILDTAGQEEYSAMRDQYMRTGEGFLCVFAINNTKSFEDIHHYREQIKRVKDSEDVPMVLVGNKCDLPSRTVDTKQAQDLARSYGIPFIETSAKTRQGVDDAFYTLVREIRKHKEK

[7] = molecular target: KRas G12R (Homo sapiens, UniProt P01116, G12R); assay: biochemical; conditions: Binding to KRas (IC50 nM) G12R, TR-FRET displacement, KRas G12R
Chain of KRas G12R (P01116 1-169 isoform P01116-2 G12R): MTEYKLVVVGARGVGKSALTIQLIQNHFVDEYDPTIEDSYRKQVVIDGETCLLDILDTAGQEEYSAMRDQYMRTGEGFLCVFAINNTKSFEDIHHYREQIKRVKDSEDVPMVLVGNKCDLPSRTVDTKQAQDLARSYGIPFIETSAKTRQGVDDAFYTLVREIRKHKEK

[8] = molecular target: KRas G12V (Homo sapiens, UniProt P01116, G12V); assay: biochemical; conditions: Binding to KRas (IC50 nM) G12V, TR-FRET displacement, KRas G12V
Chain of KRas G12V (P01116 1-169 isoform P01116-2 G12V): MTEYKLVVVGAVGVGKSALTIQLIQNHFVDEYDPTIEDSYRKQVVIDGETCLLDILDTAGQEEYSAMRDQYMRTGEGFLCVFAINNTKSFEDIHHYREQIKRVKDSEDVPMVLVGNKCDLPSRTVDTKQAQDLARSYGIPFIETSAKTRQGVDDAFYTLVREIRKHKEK

[9] = test system: A549 cells; assay: Inhibition of KRas-mediated phosphorylation of ERK (Cisbio HTRF pERK), A549 cells; assay type: cell-based; conditions: Homo sapiens; for IC50: A549, 3 h, 3 hr compound incubation, Cisbio pERK HTRF; for inhibition at 0.1 µM: single point at 100 nM, 3 hrs compound incubation
[10] = molecular target: KRas G12A (Homo sapiens, UniProt P01116, G12A); assay type: binding; conditions: single point, 10 nM compound, read-out: Binding to KRas (% inhibition at 10 nM) G12A
Chain of KRas G12A (P01116 1-169 isoform P01116-2 G12A): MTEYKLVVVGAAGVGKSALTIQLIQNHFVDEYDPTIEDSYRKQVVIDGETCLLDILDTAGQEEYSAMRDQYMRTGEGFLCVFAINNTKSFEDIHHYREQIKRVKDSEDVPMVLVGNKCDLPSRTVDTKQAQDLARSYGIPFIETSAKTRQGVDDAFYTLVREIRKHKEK

[11] = test system: H727 cells; assay: Inhibition of KRas-mediated phosphorylation of ERK (Cisbio HTRF pERK), H727 cells; assay type: cell-based; conditions: Homo sapiens; for IC50: NCI-H727, 3 h, 3 hr compound incubation, Cisbio pERK HTRF; for inhibition at 0.1 µM: NCI-H727, single point at 100 nM, 3 hrs compound incubation
[12] = test system: ASPC1 cells; assay: Inhibition of KRas-mediated phosphorylation of ERK (Cisbio HTRF pERK), ASPC1 cells; assay type: cell-based; conditions: Homo sapiens, AsPC-1 cells; for IC50: ASPC1, 3 h, 3 hr compound incubation, Cisbio pERK HTRF; for inhibition at 0.1 µM: ASPC1, single point at 100 nM, 3 hrs compound incubation
[13] = test system: H358 cells; assay: Inhibition of KRas-mediated phosphorylation of ERK (Cisbio HTRF pERK), H358 cells; assay type: cell-based; conditions: Homo sapiens; for IC50: NCI-H358, 3 h, 3 hr compound incubation, Cisbio pERK HTRF; for inhibition at 0.1 µM: NCI-H358, single point at 100 nM, 3 hrs compound incubation
[14] = molecular target: KRas Q61H (Homo sapiens, UniProt P01116, Q61H); assay: KRas binding assay (TR-FRET displacement), KRas Q61H; conditions: single point, 10 nM compound
Chain of KRas Q61H (P01116 1-169 isoform P01116-2 Q61H): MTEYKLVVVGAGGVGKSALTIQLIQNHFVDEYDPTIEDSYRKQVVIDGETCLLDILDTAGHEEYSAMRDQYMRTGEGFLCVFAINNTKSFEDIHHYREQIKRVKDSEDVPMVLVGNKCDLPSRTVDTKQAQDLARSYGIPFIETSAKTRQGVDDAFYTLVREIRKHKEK

[15] = molecular target: KRas G12S (Homo sapiens, UniProt P01116, G12S); assay type: binding; conditions: single point, 10 nM compound, read-out: Binding to KRas (% inhibition at 10 nM) G12S
Chain of KRas G12S (P01116 1-169 isoform P01116-2 G12S): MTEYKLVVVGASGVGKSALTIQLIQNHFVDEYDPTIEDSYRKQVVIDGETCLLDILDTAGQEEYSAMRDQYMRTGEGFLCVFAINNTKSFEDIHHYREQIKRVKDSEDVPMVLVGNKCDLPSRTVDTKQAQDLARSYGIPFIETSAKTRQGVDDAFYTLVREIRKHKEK

[16] = molecular target: KRas G12D (Homo sapiens, UniProt P01116, G12D); assay: biochemical; conditions: Binding to KRas (IC50 nM) G12D, TR-FRET displacement, KRas G12D
Chain of KRas G12D (P01116 1-169 isoform P01116-2 G12D): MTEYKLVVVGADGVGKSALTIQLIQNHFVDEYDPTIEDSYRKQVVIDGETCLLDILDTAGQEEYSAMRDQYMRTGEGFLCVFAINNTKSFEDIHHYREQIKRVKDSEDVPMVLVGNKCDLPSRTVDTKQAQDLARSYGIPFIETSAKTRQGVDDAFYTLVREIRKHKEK

[17] = test system: HCT116 cells; assay: Inhibition of KRas-mediated phosphorylation of ERK (Cisbio HTRF pERK), HCT116 cells; assay type: cell-based; conditions: Homo sapiens, HCT-116, 3 h, 3 hr compound incubation, Cisbio pERK HTRF

Structure (SMILES) | IC50 [1] [nM] | inhibition at 0.01 µM [2] [%] | IC50 [3] [nM] | IC50 [4] [nM] | inhibition at 0.01 µM [5] [%] | inhibition at 0.01 µM [6] [%] | IC50 [7] [nM] | IC50 [8] [nM] | IC50 [9] [nM] | inhibition at 0.1 µM [9] [%] | inhibition at 0.01 µM [10] [%] | IC50 [11] [nM] | inhibition at 0.1 µM [11] [%] | IC50 [12] [nM] | IC50 [13] [nM] | inhibition at 0.1 µM [13] [%] | inhibition at 0.01 µM [14] [%] | inhibition at 0.01 µM [15] [%] | IC50 [16] [nM] | IC50 [17] [nM] | also measured
CCc1c(F)ccc2cc(O)cc(N3CCc4c(nc(OC[C@@]56CCCN5C[C@H](F)C6)nc4N4CCCn5nc(C(=O)N(C)C6CC6)cc5C4)C3)c12 [Example 383, N-cyclopropyl-5-(7-(8-ethyl-7-fluoro-3-hydroxynaphthalen-1-yl)-2-(((2R,7aS)-2-fluorohexahydro-1H-pyrrolizin-7a-yl)methoxy)-5,6,7,8-tetrahydropyrido[3,4-d]pyrimidin-4-yl)-N-methyl-5,6,7,8-tetrahydro-4H-pyrazolo[1,5-a][1,4]diazepine-2-carboxamide] | 3680 | 99 | 13 | 7.8 | 97 | 97 | < 2 | < 2 | 5 | 90 | 96 | 2 | 85 | 1 | 2 | 98 | 98 | 99 | < 2 | 73 | inhibition at 0.1 µM [12]: 97%
CCc1c(F)ccc2cc(O)cc(N3CCc4c(nc(OC[C@@]56CCCN5C[C@H](F)C6)nc4N4CCCn5nc(C(=O)NC6CC6)cc5C4)C3)c12 [Example 384, N-cyclopropyl-5-(7-(8-ethyl-7-fluoro-3-hydroxynaphthalen-1-yl)-2-(((2R,7aS)-2-fluorohexahydro-1H-pyrrolizin-7a-yl)methoxy)-5,6,7,8-tetrahydropyrido[3,4-d]pyrimidin-4-yl)-5,6,7,8-tetrahydro-4H-pyrazolo[1,5-a][1,4]diazepine-2-carboxamide] | 3880 | 99 | 25 | 9 | 94 | 93 | < 2 | < 2 | 17 | 65 | 91 | 6 | 79 | 2 | 5 | 100 | 95 | 98 | < 2 | 91 | inhibition at 0.1 µM [12]: 98%
CCc1c(F)ccc2cc(O)cc(N3CCc4c(nc(OC[C@@]56CCCN5C[C@H](F)C6)nc4N4CCCn5nc(C(=O)N(C)C6CCC6)cc5C4)C3)c12 [Example 385, N-cyclobutyl-5-(7-(8-ethyl-7-fluoro-3-hydroxynaphthalen-1-yl)-2-(((2R,7aS)-2-fluorohexahydro-1H-pyrrolizin-7a-yl)methoxy)-5,6,7,8-tetrahydropyrido[3,4-d]pyrimidin-4-yl)-N-methyl-56,7,8-tetrahydro-4H-pyrazolo[1,5-a][1,4]diazepine-2-carboxamide] | 3980 | 98 | 22 | 14.4 | 95 | 94 | < 2 | < 2 | 15 | 74 | 96 | 5 |  | 3 | 2 | 94 | 96 | 98 | < 2 | 85 | 
